In US7879886B2, “Iron binding agents” (University of Florida Research Foundation, Inc., priority 1998, dated 2011):
Where two headings read alike, the source gives them in different places.

Columns and labels:
[1] = Iron clearance efficiency in the iron-loaded Cebus apella monkey; type: in vivo
Source text: (§1) One screen for efficacy is the normal (not iron-loaded) Sprague-Dawley rat with a cannulated bile duct. In this model, collection of bile and urine after oral or parenteral administration of a chelator permits the rapid determination of the magnitude and route(s) of excretion. The iron-loaded Cebus apella monkey is used as a better screen, however. To date, the behavior of iron chelators in this primate model has been-quantitatively predictive of both the magnitude and routes of iron clearance after human administration.
(§2) The primary measure of activity is the efficiency of the compound, as assessed in both rodent and primate models and compared with sc DFO. Compound efficiency is a comparative evaluation of how much iron excretion a chelator promotes relative to the theoretical amount. For example, the hexacoordinate chelator DFO forms 1:1 iron complexes with a formation constant of 3×10^30 M^−1 (Anderegg et al., Helv. Chim. Acta 46: 1409-1422 (1963)); if the efficiency were 100%, one mmol of DFO administered to an animal would cause one mmol of the iron complex to be excreted. In fact, only 5% of the calculated iron is excreted when DFO is administered to humans (Kirking et al., Clin. Pharmacol. 10:775-783 (1991)). In the case of the DFT analogues, the efficiency calculation is based on the formation of a 2:1 complex with a formation constant assumed to be similar to that of the parent compound, 4×10^29 M^−1 (Anderegg et al., J. Chem. Soc., Chem. Commun. 1194-1196 (1990).

[2] = Iron clearance efficiency in the normal (not iron-loaded) bile duct-cannulated Sprague-Dawley rat; type: in vivo
Source text: as §1, §2

[3] = system: malarial parasites; test: Impact on malarial parasites in vitro (48 h exposure, 48 h after removal, percent parasitemia); type: cell-based, Plasmodium
Source text: Studies can be done on the developmental stages and morphology of the malarial parasite in vitro; the minimum effective concentration required for cytotoxicity can be shown. The target structures include the nuclear envelope, the membrane of the food vacuole, accumulation of electron-dense substances in the mitochondria, undigested materials, and dilation of the endoplasmic reticulum.
In order to determine the concentration at which a compound is cytostatic and cytotoxic, the parasites are exposed to the drug using at least two different concentrations. After 48 h the chelator is removed, and the parasites are incubated for an additional 48 h. The percent parasitemia is determined at both time points (48 and 96 h). The effects of the various compounds on malarial parasites seem quite varied. For the purposes of comparison, DFO can serve as the positive control. […] However, at a concentration of 10^−4 M, DFO is cytotoxic; the plasmodia die during the 48-h incubation with the compound.
The compounds designated as 8 and 22 in Table I are active in this in vitro assay. Others can be similarly tested.

[4] = cited from earlier work
[5] = administered to humans; cited from earlier work

Structure (SMILES)	% Efficiency of Iron Clearance ([1]; 300 μmol/kg po)	% Efficiency of Iron Clearance ([2]; po)	% Efficiency of Iron Clearance ([2]; sc)	% Efficiency of Iron Clearance ([1]; 150 μmol/kg po)	% Efficiency of Iron Clearance ([2]; route not given)	other results
O=C(C1CSC(c2ncccc2O)=N1)N(O)Cc1ccccc1 (stereo not shown) [Compound 24]	≦0.5%	1 ± 0.1 (po) %	1.4 ± 0.8 (sc) %	–	–	% Efficiency of Iron Clearance ([1]; 300 μmol/kg sc): ≦0.5%
O=C(O)C1CSC(c2ccc(O)cc2O)=N1 [5(R), 4,5-Dihydro-2-(2-,4-dihydroxyphenyl)-4-thiazolecarboxylic acid]	–	–	–	1.7 ± 0.8%	≦0.5%	–
O=C(O)c1ccc(C2=N[C@@H](C(=O)O)CS2)c(O)c1 [7(S), (S)-4,5-Dihydro-2-(2-hydroxy-4-carboxyphenyl)-4-thiazolecarboxylic acid]	–	–	–	–	≦0.5%	–
C[C@]1(C(=O)O)CSC(c2ccccc2O)=N1 [9(S)]	13.1 ± 4%	2.7 ± 0.5 (po) %	–	–	–	% Efficiency of Iron Clearance ([1]; 75 μmol/kg po): 21.5 ± 12%; % Efficiency of Iron Clearance ([1]; 300 μmol/kg sc): 43.3 ± 8.5%
COc1cccc(C2=N[C@@H](C(=O)O)CS2)c1O [6(S), (S)-4,5-dihydro-2-(2-hydroxy-3-methoxyphenyl)-4-thiazolecarboxylic acid]	–	0.9 ± 0.3 (po) %	0.5 ± 0.9 (sc) %	–	–	–
CN(O)C(=O)[C@H]1CSC(c2ncccc2O)=N1 [Compound 22, (S)-desmethyldesferrithiocin, N-methylhydroxamate]	13.2 ± 7.7%	3.1 ± 0.4 (po) %	5.3 ± 0.7 (sc) %	6.9 ± 3.0%	–	Activity in the in vitro malarial parasite assay [3]: active; % Efficiency of Iron Clearance ([1]; 150 μmol/kg sc): 11.7 ± 5.5%
Oc1cccnc1C1=N[C@@H](N(O)CCOCCOCCN(O)[C@H]2CSC(c3ncccc3O)=N2)CS1 [Compound 25, (S,S)-N^1,N^8-bis[4,5-dihydro-2-(3-hydroxy-2-pyridinyl)-4-thiazoyl]-N^1,N^8-dihydroxy-3,6-dioxa-1,8-octanediamine]	–	4.6 ± 2.1 (po) %	20.6 ± 1.3 (sc) %	–	–	–
O=C(O)[C@H]1CSC(c2ncccc2O)=N1 [2(S), (S)-desmethyldesferrithiocin]	8.0 ± 2.5%	2.4 ± 0.56 (po) %	1.8 ± 0.7 (sc) %	4.8 ± 2.7%	–	% Efficiency of Iron Clearance ([1]; 300 μmol/kg sc): 8.3 ± 2.7%
O=C(O)CC[C@H]1CSC(c2ccccc2O)=N1 [17(S), (S)-4,5-dihydro-2-(2-hydroxyphenyl)-4-thiazolepropanoic acid]	–	–	–	–	≦0.5%	–
O=C(O)C1CCSC(c2ncccc2O)=N1 [14(S), 2-(3-hydroxy-2-pyridinyl)4H-5,6-dihydro-1,3-thiazine-4-carboxylic acid]	–	–	–	–	≦0.5%	–
O=C(O)C1CSC(c2ccc(O)cc2O)=N1 [5(S), 4,5-Dihydro-2-(2-,4-dihydroxyphenyl)-4-thiazolecarboxylic acid]	5.3 ± 1.7%	2.4 ± 0.9 (po) %	–	4.2 ± 1.4%	–	% Efficiency of Iron Clearance ([1]; 150 μmol/kg in H2O sc): 5.6 ± 0.9%; % Efficiency of Iron Clearance ([1]; 300 μmol/kg in H2O po): 4.8 ± 1.4%
O=C(O)C[C@H]1CSC(c2ccccc2O)=N1 [16(S), (S)-4,5-Dihydro-2-(2-hydroxyphenyl)-4-thiazoleacetic acid]	–	–	–	–	≦0.5%	–
C[C@]1(C(=O)O)CSC(c2ccc(O)cc2O)=N1 [28(S), 4′-hydroxydesazaDFT]	–	–	–	13.4 ± 5.8%	≦0.5%	% Efficiency of Iron Clearance ([1]; 75 μmol/kg po): 17.7 ± 3.9%
C[C@]1(C(=O)O)CSC(c2ncccc2O)=N1 [1(S), desferrithiocin, reference compound]	–	–	–	16.1 ± 8.5%	5.5 ± 3.2%	Formation constant of iron complex ([4]; 2:1 complex): 4e+29 M⁻¹
CC(=O)N(O)CCCCCNC(=O)CCC(=O)N(O)CCCCCNC(=O)CCC(=O)N(O)CCCCCN [DFO]	–	–	–	–	–	Effect on plasmodia ([3]; 48-h incubation at 10^−4 M): cytotoxic; Malarial growth after the compound is removed ([3]; after 48-h exposure at 10^−5 M, compound removed): normal growth resumes; Effect on malarial growth ([3]; initial 48-h continuous exposure at 10^−5 M): inhibits malarial growth; Efficiency: calculated iron excreted [5]: 5%; Formation constant of iron complex ([4]; 1:1 iron complex): 3e+30 M⁻¹
O=C(O)[C@H]1CSC(Cc2ccccc2O)=N1 [15(S), (S)-4,5-Dihydro-2-(2-hydroxyphenylmethyl)-4-thiazolecarboxylic acid]	–	–	–	–	≦0.5%	–
